Experiments:
[1] = system: VGLUT3 (BON VGLUT3 cells); experiment: Confocal fluorescence labeling of BON cells expressing VGLUT3; format: cell-based, human (BON cells); details: for fluorescence intensity in BON VGLUT3 cells relative to BON WT cells / labeling in cytoplasm of BON VGLUT3 cells / effect of LSP5 pretreatment on fluorescence intensity in BON VGLUT3 cells: FIG. 2; for fluorescence intensity in BON VGLUT3 cells relative to BON WT cells / labeling in cytoplasm of BON VGLUT3 cells: 1 h; for fluorescence intensity in BON VGLUT3 cells relative to BON WT cells / labeling in cytoplasm of BON VGLUT3 cells / intensity of labeling in BON VGLUT3 cells relative to BON WT cells: 37 °C; for effect of LSP5 pretreatment on fluorescence intensity in BON VGLUT3 cells: pretreatment with LSP5-2157; for intensity of labeling in BON VGLUT3 cells relative to BON WT cells: FIG. 3, 20 minutes
Procedure: A “BON” cell line describes cells derived from human pancreatic carcinoma; the article by Ramet L. et al., published in J Neurosci, 2017, 37 (15), 4181-4199, describes such cells and the use thereof for the characterization of VGLUT type transporters.
(§1) The experiments are carried out with a BON cell line stably expressing VGLUT3 or a fluorescent VGLUT2 “VGLUT2-venus”. Wild non-transfected BON cells (“wild-type”, BON WT) are used as controls. The cells are cultured in F-12 Nutrient Mixture Ham medium (21765-029, Thermo Fisher Scientific) and Dulbecco's Modified Eagle's Medium High Glucose (DMEM HG, 31966021, Thermo Fisher Scientific; volume/volume), supplemented with 10% fetal calf serum (FCS, 12483012, Thermo Fisher Scientific) and 1% (volume/volume) of a mixture of streptomycin (10 mg/mL)/penicillin (10,000 U/mL) and […] an incubator at 37 °C under 5% CO2. For the transfected clones, the medium is enriched with 0.8 mg/mL Geneticin G418 sulfate (G418, 10131027, Thermo Fisher Scientific).
The cells are cultured in 25 cm^2 culture flasks. When the cells are at confluence, they are rinsed with sterile PBS 1× after aspiration of the medium, then incubated for five minutes at 37 °C with a solution of trypsin-EDTA (0.05% trypsin EDTA, 25300054, Thermo Fisher Scientific. The cell layer is then detached and the cells dissociated from each other. After addition of medium, the cell suspension is centrifuged for 5 minutes at 300 g, then the pellet is diluted 1:3 in order to be recultivated.
(§2) Two days before each experiment, after trypsinization of the cells from a culture flask, the cell suspension is seeded at 150,000 cells/well, in twelve-well plates on glass coverslips 19 mm in diameter. For observation, these coverslips are placed in a chamber allowing a hermetic fixation of the coverslip in the observation medium, Fluorobrite™ DMEM (A1896701, Thermo Fisher Scientific), a transparent medium.
(§3) Before each observation, the cells are incubated at 37 °C in the presence of fluorescent ligands, at previously determined concentrations. The effect of a pretreatment of BON cells with a specific inhibitor of VGLUTs, the substance LSP5-2157, is also performed to study the inhibitory effect of this substance on the labeling of BON cells with the fluorescent ligands of the invention.
(§4) The cells are observed in real time under an inverted confocal microscope, with a 63× objective in a room thermostated at 37 °C (Leica TCS SP5; cellular imaging platform of the Paris-Seine Institute of Biology). The studied fluorescent molecules emit in the blue, the cells are excited at 405 nm.
(§5) FIG. 2 illustrates the observation and quantification of the BON cells under a confocal microscope, and the inhibition of the fluorescent signal by a pretreatment of the cells with the specific VGLUT inhibitor, LSP5-2157. […] The images are presented in negative. D,H,L and P: Quantification of the treatment effect.
Different acquisitions of cells are carried out using a confocal microscope. […] Statistical analysis: Kruskal-Wallis test followed by Dunn's post-hoc test, NS: non-significant, *p<0.01; ***p<0.0001.
FIG. 3 illustrates the observation and quantification of BON cells using a confocal microscope. Wild-type cells (BON WT) or VGLUT3-expressing cells (BON VGLUT3) are incubated with different fluorescent ligands referenced: L8, YL151, D04, C07, C05, B09, G02, F11. After treatment with fluorescent ligands for 20 minutes at 37 °C, a fluorescent labeling is visible in BON cells. The effect of the treatment is analyzed by quantifying the fluorescence intensity in each cell type. […] Statistical analysis: Mann Whitney test, NS: non-significant, **p=0.0042; ***p<0.0001.

BON WT cells = experiment: Confocal fluorescence labeling of wild-type BON cells; format: cell-based, human; details: FIG. 2
Procedure: as §1, §2, §3, §4, §5

striatum slices = experiment: Fluorescent labeling of striatum slices; format: cell-based, mouse; details: 25 μM, 1 h, 37 °C
Procedure: The compatibility of the fluorescent compounds of the invention was determined in brain slices from newborns mice, a study model with greater integrity than cell culture. Mice aged 4 to 7 days are decapitated. The brains are removed and then placed in Neurobasal™-A Medium (10888022, ThermoFisher Scientific) enriched with 2% B-27™ Plus (A3582801, ThermoFisher Scientific) and 1% (volume/volume) of a mixture of streptomycin (10 mg/mL)/penicillin (10,000 U/mL). The brains are cut into 500 μm thick slices (McIlwain Tissue Chopper, model TC752) then dissociated from each other. The slices corresponding to the striatum are selected and incubated for one hour in the medium in the presence of 25 μM of fluorescent ligand, or without fluorescent molecule for the controls. Incubations in the presence or absence of the reference VGLUT inhibitor were carried out.
The brain slices were incubated in the presence of each of the compounds according to the invention D04, C07, C05, B09, L8, YL151, G02, F11 (See reference correspondences in Table 1). FIG. 4 illustrates the quantification of fluorescence of striatum slices after incubation in the presence of fluorescent compounds of the invention. […] Acquisitions were carried out using a confocal microscope (×5 objective) and the average fluorescence intensity for each slice was quantified. […]

SMILES | fluorescence intensity in BON VGLUT3 cells relative to BON WT cells [1] | labeling in cytoplasm of BON VGLUT3 cells [1] | effect of LSP5 pretreatment on fluorescence intensity in BON VGLUT3 cells [1] | intensity of labeling in BON VGLUT3 cells relative to BON WT cells [1] | labeling in cytoplasm of BON WT cells (BON WT cells) | difference between ester (F11) and acid (G02) labeling of slices (striatum slices)
Nc1ccc(-c2ccc(C#Cc3cc4cc(C(=O)O)c(=O)oc4cc3O)cc2)cc1 [LSP17-1173, 6-((4′-amino-[1,1′-biphenyl]-4-yl)ethynyl)-7-hydroxy-2-oxo-2H-chromene-3-carboxylic Acid] | significantly increases | a punctiform labeling appears | decreases the fluorescence intensity | increases significantly | a weak and homogeneous labeling is detected | no significant difference between the compounds G02 and F11
CCOC(=O)c1cc2cc(C#Cc3ccc(-c4ccc(N)cc4)cc3)c(O)cc2oc1=O [F11, Ethyl-6-((4′-amino-[1,1′-biphenyl]-4-yl)ethynyl)-7-hydroxy-2-oxo-2H-chromene-3-carboxylate] | – | – | – | increases significantly | – | no significant difference between the compounds G02 and F11
Nc1ccc(-c2ccc(-c3cn(-c4ccc5oc(=O)c(C(=O)O)cc5c4)nn3)cc2)cc1 [LSP17-1115, 6-(4-(4′-amino-[1,1′-biphenyl]-4-yl)-1H-1,2,3-triazol-1-yl)-2-oxo-2H-chromene-3-carboxylic Acid] | – | – | – | increases significantly | – | –
O=C(O)c1cc(C(=O)O)c2cc(-c3ccc(-c4ccccc4)cc3)ccc2n1 [LSP13-1152-YL152 (L8), 6-(Biphenyl-4-yl) quinoline-2,4-dicarboxylic Acid] | significantly increases | a punctiform labeling appears | decreases the fluorescence intensity | increases significantly | a weak and homogeneous labeling is detected | –
COc1cc2oc(=O)c(C(=O)O)cc2cc1-n1cc(-c2ccc(-c3ccc(N)cc3)cc2)nn1 [LSP17-1124, 6-(4-(4′-amino-[1,1′-biphenyl]-4-yl)-1H-1,2,3-triazol-1-yl)-7-methoxy-2-oxo-2H-chromene-3-carboxylic Acid] | – | – | – | increases significantly | – | –

Source: patent US20260374750A1, “LIGANDS SPECIFICALLY TARGETING VESICULAR GLUTAMATE TRANSPORTERS FOR SUPER-RESOLUTION IMAGING” (SORBONNE UNIVERSITÉ, priority 2021, published 2026)
